Target: T1, hNKCC1 (NT17, 3xFlag-YFP-tagged human NKCC1) (Homo sapiens, UniProt P55011)
T1 construct: gene SLC12A2; full-length human NKCC1 from synthetic cDNA with 262 silent mutations; N-terminal 3xFlag and YFP (mVenus) tags kept; pcDNA3.1-neo, stably expressed in HEK-293 cells
T1 sequence (P55011 1-1212): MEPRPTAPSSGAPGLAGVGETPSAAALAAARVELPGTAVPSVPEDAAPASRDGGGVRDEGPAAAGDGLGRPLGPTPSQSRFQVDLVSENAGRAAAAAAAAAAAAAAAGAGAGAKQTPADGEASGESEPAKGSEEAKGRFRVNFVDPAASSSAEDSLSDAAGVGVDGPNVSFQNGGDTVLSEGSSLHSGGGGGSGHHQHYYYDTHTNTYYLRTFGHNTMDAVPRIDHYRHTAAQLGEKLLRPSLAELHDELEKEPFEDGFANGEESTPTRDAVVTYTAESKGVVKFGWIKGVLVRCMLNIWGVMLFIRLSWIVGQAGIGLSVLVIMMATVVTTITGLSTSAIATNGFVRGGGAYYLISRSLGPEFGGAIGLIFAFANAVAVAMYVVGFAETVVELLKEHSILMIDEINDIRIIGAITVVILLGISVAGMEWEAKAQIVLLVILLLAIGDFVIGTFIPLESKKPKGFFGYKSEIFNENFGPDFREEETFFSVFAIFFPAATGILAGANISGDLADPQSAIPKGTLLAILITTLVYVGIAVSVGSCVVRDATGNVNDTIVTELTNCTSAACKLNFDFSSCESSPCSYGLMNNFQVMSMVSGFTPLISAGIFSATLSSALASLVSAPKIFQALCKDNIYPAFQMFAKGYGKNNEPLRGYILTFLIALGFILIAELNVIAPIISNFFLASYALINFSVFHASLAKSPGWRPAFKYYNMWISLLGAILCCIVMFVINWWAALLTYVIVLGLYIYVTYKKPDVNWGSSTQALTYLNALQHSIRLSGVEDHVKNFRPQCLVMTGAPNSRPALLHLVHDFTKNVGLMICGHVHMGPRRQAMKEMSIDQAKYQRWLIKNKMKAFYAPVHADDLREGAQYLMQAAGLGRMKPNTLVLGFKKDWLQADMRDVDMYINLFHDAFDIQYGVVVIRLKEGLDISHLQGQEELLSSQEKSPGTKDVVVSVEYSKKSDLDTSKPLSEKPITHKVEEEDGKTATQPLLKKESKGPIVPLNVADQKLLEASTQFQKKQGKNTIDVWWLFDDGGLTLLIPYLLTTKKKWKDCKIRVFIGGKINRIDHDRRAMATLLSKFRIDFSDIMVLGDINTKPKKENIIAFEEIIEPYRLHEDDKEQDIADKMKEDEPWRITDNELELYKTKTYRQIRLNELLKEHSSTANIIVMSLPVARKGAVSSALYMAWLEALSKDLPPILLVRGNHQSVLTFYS
Test: influx inhibition in transfected HEK-293 cells, single-site fit
Type: cell-based
Details: read-out: Ki (bumet)

## CCCCNc1cc(C(=O)O)cc(S(N)(=O)=O)c1Oc1ccccc1 [bumetanide]
  Ki: 460 ± 100 nM

Source: paper PMC3855340, “Functional Expression of Human NKCC1 from a Synthetic Cassette-Based cDNA: Introduction of Extracellular Epitope Tags and Removal of Cysteines” (PLoS ONE, 2013)
